From ChEMBL document CHEMBL5143678, “Identification of Antithrombotic Natural Products Targeting the Major Substrate Binding Pocket of Protein Disulfide Isomerase” (J Nat Prod, 2022) come the findings set out here.

Data set [1] has as its target T1, Protein disulfide-isomerase (Homo sapiens, UniProt P07237). The data set is described as follows: Binding affinity to recombinant His-tagged full length human PDI-b' x domain substrate binding pocket expressed in Escherichia coli BL21 (DE3) cells assessed as decrease in fluorescence intensity at 100 uM incubated for 10 mins by tryptophan fluorescence based assay.
Target sequence in this assay (P07237 18-508 limits assumed): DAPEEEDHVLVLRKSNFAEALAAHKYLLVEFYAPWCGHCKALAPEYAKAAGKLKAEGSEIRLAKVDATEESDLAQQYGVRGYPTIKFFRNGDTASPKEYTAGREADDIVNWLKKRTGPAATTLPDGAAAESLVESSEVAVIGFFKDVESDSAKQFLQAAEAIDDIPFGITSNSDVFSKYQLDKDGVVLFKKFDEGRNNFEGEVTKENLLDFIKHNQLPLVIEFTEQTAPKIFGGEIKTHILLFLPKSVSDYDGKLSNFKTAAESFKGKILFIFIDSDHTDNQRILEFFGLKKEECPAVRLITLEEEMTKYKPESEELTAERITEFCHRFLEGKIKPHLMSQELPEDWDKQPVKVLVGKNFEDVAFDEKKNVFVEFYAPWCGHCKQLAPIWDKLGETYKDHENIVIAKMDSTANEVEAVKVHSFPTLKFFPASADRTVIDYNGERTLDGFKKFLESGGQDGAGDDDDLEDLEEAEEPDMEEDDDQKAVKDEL

Data set [2] deals with T1, Protein disulfide-isomerase. Briefly: Inhibition of recombinant His-tagged full length human PDI reductase activity assessed as inhibition of PDI/DTT-mediated cleavage of disulfide bond in insulin at 100 uM incubated for 40 mins by spectrophotometric analysis.
Target sequence in this assay (P07237 18-508 limits assumed): as above
The target in data set [3] is T2, Protein disulfide-isomerase A3 (Homo sapiens) (UniProt P30101).
T2 sequence (whole entry): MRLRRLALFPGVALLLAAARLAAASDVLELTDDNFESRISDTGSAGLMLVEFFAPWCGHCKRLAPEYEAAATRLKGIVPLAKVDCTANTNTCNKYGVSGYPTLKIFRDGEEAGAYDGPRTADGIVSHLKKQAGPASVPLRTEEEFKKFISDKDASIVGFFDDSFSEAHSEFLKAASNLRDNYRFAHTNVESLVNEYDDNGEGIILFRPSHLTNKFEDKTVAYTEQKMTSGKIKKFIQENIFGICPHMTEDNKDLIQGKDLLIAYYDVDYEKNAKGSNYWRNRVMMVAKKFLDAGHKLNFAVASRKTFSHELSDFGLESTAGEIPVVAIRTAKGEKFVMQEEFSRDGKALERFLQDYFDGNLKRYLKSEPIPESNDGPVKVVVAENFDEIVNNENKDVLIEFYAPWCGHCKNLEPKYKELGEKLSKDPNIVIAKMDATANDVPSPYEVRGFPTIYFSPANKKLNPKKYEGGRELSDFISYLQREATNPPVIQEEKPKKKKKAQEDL
The data set is described as follows: Inhibition of ERp57 (unknown origin) reductase activity assessed as inhibition of PDI/DTT-mediated cleavage of disulfide bond in insulin in the presence of DTT incubated for 40 mins by spectrophotometric analysis. The following applies: dose 100-200 µM, DDE = dose-dependent effect.

Data set [4] in a line: Toxicity in anesthetized ICR mouse model of electrically-induced carotid artery thrombosis assessed as thrombus formation by measuring blood loss in tail at 30 mg/kg, iv. It is filed as organism-based. Conditions: in vivo.
Data set [5] deals with T1, Protein disulfide-isomerase. The data set is described as follows: Inhibition of recombinant His-tagged full length human PDI reductase activity assessed as inhibition of PDI/DTT-mediated cleavage of disulfide bond in insulin in the presence of DTT incubated for 40 mins by spectrophotometric analysis. The following applies: dose 100-200 µM, DDE = dose-dependent effect.
Target sequence in this assay (P07237 18-508 limits assumed): as the sequence (P07237 18-508 limits assumed) above

In data set [6] the target is T3, Protein disulfide-isomerase A4 (Homo sapiens) (UniProt P13667).
T3 sequence (whole entry): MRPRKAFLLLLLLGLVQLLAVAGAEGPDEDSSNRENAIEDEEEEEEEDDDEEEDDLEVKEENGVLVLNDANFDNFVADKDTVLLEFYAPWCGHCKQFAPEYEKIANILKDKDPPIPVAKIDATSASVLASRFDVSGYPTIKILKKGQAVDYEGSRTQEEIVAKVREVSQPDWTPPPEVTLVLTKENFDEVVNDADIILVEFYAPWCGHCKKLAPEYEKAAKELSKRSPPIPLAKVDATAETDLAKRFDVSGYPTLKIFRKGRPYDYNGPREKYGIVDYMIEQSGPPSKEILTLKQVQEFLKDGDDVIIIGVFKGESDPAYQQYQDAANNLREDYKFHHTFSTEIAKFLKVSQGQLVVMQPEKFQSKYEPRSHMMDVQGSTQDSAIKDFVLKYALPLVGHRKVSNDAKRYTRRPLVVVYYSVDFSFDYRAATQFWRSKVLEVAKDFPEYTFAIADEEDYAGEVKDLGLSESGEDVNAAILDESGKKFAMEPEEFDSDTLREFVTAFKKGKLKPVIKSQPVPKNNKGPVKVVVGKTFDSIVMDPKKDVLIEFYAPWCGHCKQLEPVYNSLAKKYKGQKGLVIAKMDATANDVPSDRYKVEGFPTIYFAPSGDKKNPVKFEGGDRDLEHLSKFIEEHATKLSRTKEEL
Briefly: Inhibition of ERp72 (unknown origin) reductase activity assessed as inhibition of PDI/DTT-mediated cleavage of disulfide bond in insulin in the presence of DTT incubated for 40 mins by spectrophotometric analysis. The following applies: dose 100-200 µM, DDE = dose-dependent effect.

For data set [7], the system named is Mus musculus. Briefly: Antithrombotic activity in anesthetized ICR mouse model of electrically-induced carotid artery thrombosis assessed as inhibition of thrombosis formation by measuring increase in bleeding time at 30 mg/kg, iv. The data set is classed as functional, organism-based.
In data set [8] the test system is Mus musculus. The data set is described as follows: Antithrombotic activity in anesthetized ICR mouse model of electrically-induced carotid artery thrombosis assessed as delay in occlusion time at 30 mg/kg, iv. It is filed as functional, organism-based.
For data set [9], the target named is T4, Protein disulfide-isomerase A6 (Homo sapiens) (UniProt Q15084).
T4 sequence (whole entry): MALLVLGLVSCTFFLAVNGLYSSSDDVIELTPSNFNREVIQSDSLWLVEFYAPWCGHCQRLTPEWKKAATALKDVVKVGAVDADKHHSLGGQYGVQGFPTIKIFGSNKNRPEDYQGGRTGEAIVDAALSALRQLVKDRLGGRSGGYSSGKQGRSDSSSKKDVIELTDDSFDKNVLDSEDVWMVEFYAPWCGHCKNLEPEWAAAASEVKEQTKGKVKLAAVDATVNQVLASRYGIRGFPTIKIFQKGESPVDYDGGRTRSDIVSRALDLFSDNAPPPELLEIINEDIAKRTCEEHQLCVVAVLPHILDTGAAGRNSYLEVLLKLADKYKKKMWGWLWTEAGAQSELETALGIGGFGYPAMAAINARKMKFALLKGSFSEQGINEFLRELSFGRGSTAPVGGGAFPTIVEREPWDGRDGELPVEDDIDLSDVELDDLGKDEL
The data set is described as follows: Inhibition of ERp5 (unknown origin) reductase activity assessed as inhibition of PDI/DTT-mediated cleavage of disulfide bond in insulin in the presence of DTT incubated for 40 mins by spectrophotometric analysis. The following applies: dose 100-200 µM, DDE = dose-dependent effect.

For data set [10], the target named is T1, Protein disulfide-isomerase. The data set is described as follows: Binding affinity to recombinant His-tagged full length human PDI-b' x domain substrate binding pocket expressed in Escherichia coli BL21 (DE3) cells assessed as inhibition constant at 100 uM incubated for 10 mins by tryptophan fluorescence based assay.
Target sequence in this assay (P07237 whole entry): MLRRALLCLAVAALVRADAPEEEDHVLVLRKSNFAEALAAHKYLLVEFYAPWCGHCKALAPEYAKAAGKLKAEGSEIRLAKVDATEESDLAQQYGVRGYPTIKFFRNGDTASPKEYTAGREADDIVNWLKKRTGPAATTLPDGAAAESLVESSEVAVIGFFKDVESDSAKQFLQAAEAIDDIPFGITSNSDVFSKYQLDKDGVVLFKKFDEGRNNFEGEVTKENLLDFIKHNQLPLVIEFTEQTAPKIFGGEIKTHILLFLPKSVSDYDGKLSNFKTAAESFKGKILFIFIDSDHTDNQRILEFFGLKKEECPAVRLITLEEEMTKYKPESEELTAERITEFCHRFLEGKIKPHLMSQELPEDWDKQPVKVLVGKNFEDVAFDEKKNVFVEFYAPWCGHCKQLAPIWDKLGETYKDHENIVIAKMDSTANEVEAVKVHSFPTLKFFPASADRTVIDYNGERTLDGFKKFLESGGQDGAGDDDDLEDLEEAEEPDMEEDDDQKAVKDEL

Calls of active or inactive are those of the source. No cut-off for these calls is given here.

In the case of `NC(CO)C(=O)NNCc1ccc(O)c(O)c1O` (centres undefined), the outcome in data set [1] was Active.

Usually Ki stands for the equilibrium dissociation constant of an inhibitor or competing ligand from its target. Take `O=c1c(O)c(-c2ccccc2)oc2cc(O)cc(O)c12` [GALANGIN]: in [2], the inhibition entry was “Active”. For the same compound, the inhibition entry in data set [3], in data set [5], in [6] and in data set [9] was “Dde” throughout. In addition, the Activity entry in data set [4] is “Non-Toxic”. In addition, the outcome (in [1]; with Mus musculus [7]; with Mus musculus [8]) was Active. Besides, the Ki in [10] is 5.9 µM.

Regarding `O=C(Nc1ccccc1)c1ccccc1O`, the result in data set [1] was Active.

Take `COc1cc(C=O)ccc1OC(C)=O`: the inhibition result in data set [2] was “Active”. The outcome in [1] was Active. In addition, the Ki in data set [10] is 309 µM.

On to `O=C(/C=C/c1ccc(O)cc1)c1ccc(O)cc1O` [ISOLIQUIRITIGENIN], for which the inhibition entry in [2] was “Active”. Further, in [1], the result was Active. In data set [10], the inhibition constant Ki stood at 36.1 µM.

`O=c1c(O)c(-c2ccccc2)oc2ccccc12`: the result in data set [1] was Active.
